Four compounds from ChEMBL document CHEMBL1201862, “PubChem BioAssay data set” (2004) can be followed below.

Test systems include SN12C; MDA-N; KM12; U-251; SF-295; SR; UO-31; NCI-H23; EKVX; MOLT-4; A498; SF-539; MDA-MB-435; SNB-19; CCRF-CEM; SW-620; RXF 393; SK-MEL-28; DU-145.
Assay in all cases: inhibition of tumour cell growth, NCI panel, 48 h

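How tested: cells in 96-well plates exposed to compound for 48 hours at five concentrations. Abbreviation: GI50, concentration required for 50% inhibition of growth.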 Activity calls are given as the source filed them. No stated cut-off is given here; in the data, active = GI50 up to about 1.1 µM and inactive = higher.

With `O=c1c(-c2nc3ccccc3c3ccccc3c2=O)nc2ccccc2c2ccccc12`, the GI50 was 28.6 µM (inactive) in the assay with SN12C; 24.3 µM (inactive) in the assay with MDA-N; 38.3 µM (inactive) with KM12; 22.2 µM (inactive) in the assay with U-251; 29.7 µM (inactive) in the assay on SF-295; 21.9 µM (inactive) in the assay with SR. Moreover, the GI50 in the assay on UO-31 is 90.2 µM (inactive); in the assay on NCI-H23 it was 40 µM (inactive); in the assay on EKVX, 50.1 µM (inactive); in the assay on MOLT-4, 34.6 µM (inactive); in the assay on A498, 35.7 µM (inactive); with SF-539, 24.5 µM (inactive). Moreover, the GI50 was 29.2 µM (inactive) in the assay with MDA-MB-435; 30.3 µM (inactive) in the assay on SNB-19; 28.1 µM (inactive) with CCRF-CEM; 33.7 µM (inactive) in the assay with SW-620; 26.8 µM (inactive) in the assay with RXF 393; 55.5 µM (inactive) in the assay with SK-MEL-28. In addition, the GI50 in the assay with DU-145 is 80.9 µM (inactive).

As to `CCC/C(=N\NC(=S)N1CC2CCC(CC2)C1)c1ccccn1`, the GI50 in the assay with SN12C was 0.395 µM (active); in the assay on MDA-N it was 0.685 µM (active); with KM12, 0.144 µM (active); with U-251, 0.181 µM (active); in the assay on SF-295, 0.399 µM (active); in the assay on SR, 0.0495 µM (active). Besides, the GI50 in the assay with UO-31 was 1.1 µM (active); in the assay with NCI-H23 it was 0.422 µM (active); in the assay with EKVX, 0.0434 µM (active); with MOLT-4, 0.0179 µM (active); in the assay on A498, 0.708 µM (active); in the assay with SF-539, 0.594 µM (active). The GI50 in the assay with MDA-MB-435 is 0.585 µM (active); in the assay with SNB-19 it was 0.571 µM (active); in the assay on CCRF-CEM, 0.0186 µM (active); with SW-620, 0.0566 µM (active); in the assay on RXF 393, 0.51 µM (active); in the assay on SK-MEL-28 it was 0.783 µM (active). The GI50 in the assay on DU-145 was 1.49 µM (inactive).

On to `CC(=O)n1nc(-c2nc3ccccc3nc2Cl)cc1Cl`, for which the GI50 in the assay on SN12C is 7.78 µM (inactive); with MDA-N, 8.36 µM (inactive); in the assay with KM12, 19.4 µM (inactive); in the assay with U-251 it was 26.3 µM (inactive); in the assay with SF-295 it was 29.6 µM (inactive); in the assay with SR, 3.34 µM (inactive). For the same compound, the GI50 with UO-31 was 1.39 µM (inactive); in the assay with NCI-H23, 6.24 µM (inactive); in the assay with EKVX, 12.5 µM (inactive); in the assay with MOLT-4, 1.9 µM (inactive); with A498, > 71.4 µM (inactive); with SF-539 it was 2.88 µM (inactive). The GI50 in the assay on MDA-MB-435 is 3.94 µM (inactive); in the assay on SNB-19, 30.5 µM (inactive); in the assay with CCRF-CEM, 2.45 µM (inactive); in the assay with SW-620, 2.88 µM (inactive); in the assay on RXF 393, 40.7 µM (inactive); in the assay with SK-MEL-28, 24.7 µM (inactive). Further, the GI50 in the assay with DU-145 was 20.6 µM (inactive).

Turning to `CC(C)C(Br)CCC1=CCC(Br)(Br)C1` (stereo unspecified), the GI50 in the assay with SN12C is 4.2 µM (inactive); with MDA-N, 2.94 µM (inactive); with KM12 it was 13.3 µM (inactive); in the assay with U-251, 15.4 µM (inactive); in the assay with SF-295, 17 µM (inactive); with SR, 2.62 µM (inactive). Further, the GI50 in the assay on UO-31 is 10.2 µM (inactive); with NCI-H23, 9.1 µM (inactive); in the assay on EKVX it was 17.9 µM (inactive); with MOLT-4, 3.48 µM (inactive); in the assay with A498, 18.8 µM (inactive); in the assay on SF-539 it was 19.2 µM (inactive). Also, the GI50 is 10.5 µM (inactive) in the assay with MDA-MB-435; 18 µM (inactive) with SNB-19; 2.79 µM (inactive) in the assay with CCRF-CEM; 3.52 µM (inactive) with SW-620; 15.2 µM (inactive) in the assay with RXF 393; 15.6 µM (inactive) in the assay on SK-MEL-28. The GI50 in the assay with DU-145 is 18.4 µM (inactive).
